Structure (SMILES)	melting point [°C]
O=C(NCC1CCN(C[C@H]2COc3ccc(Cl)cc3O2)CC1)c1ccccn1	110 to 112
Cc1ccccc1C(=O)CN1C(=O)C(NC(=O)Nc2cccc(C(=O)O)c2)N=C(c2ccccc2F)c2cccc(C)c21 (stereo not given)	168 to 176
CCC1C(CC)N1S(=O)(=O)c1ccc(C)cc1 (stereo not given)	69 to 70
COc1nc(C(F)(F)F)cc(=O)n1-c1cc(C(=O)O)c(Cl)cc1F	205 to 210
Cc1ccccc1C=Nc1c2c(nc3ccccc13)CCCC2	160 to 162
Cc1nc2cc(Cl)ccc2c(=O)n1CCc1ccccc1	133 to 135
CN1C(=O)C(N)C(=O)N(C23CC4CC(CC(C4)C2)C3)c2ccccc21 (stereo not given)	194
CCOC(=O)C(C)CNc1c(C#N)cnn1-c1c(F)c(F)c(CC)c(F)c1F (stereo not given)	76 to 78
COC(=O)CC1CC(c2cccc(C3(c4ccc(OC(F)F)cc4)N=C(N)N(C)C3=O)c2)C1 (stereo not given)	68 to 70
O=[N+]([O-])c1c(Cl)sc(Cl)c1S(=O)(=O)Cl	89 to 91
CN(C)S(=O)(=O)n1cc(-c2ccc(Cl)cc2Cl)nc1C1=NC(=O)C(=O)S1	158
COC(=O)N[C@@H](Cc1ccc(OCc2ccccc2)cc1)C(=O)Nc1c(C(C)C)cccc1C(C)C	179 to 182
CS(=O)(=O)C1CC(=O)N1CC(=O)OCc1ccccc1 (single isomer, unassigned; (+))	102 to 103
OC(CN1CCNC1=S)c1ccc(F)cc1 (stereo not given)	130
C=CC(=O)OCCCCCCOc1ccc(C=O)cc1	30
CC(C)NCC(O)COc1ccccc1C1=NN(C)C(=O)CC1 (stereo not given)	82 to 84
CCCCCCCCCCCc1[nH]c2ccc(C(=O)OC)cc2c1C=O	162 to 165
COc1ccc2cc(C(=O)Oc3ccc(Cl)cn3)c(=O)oc2c1	248 to 250
COc1cc(-c2ccc(N(C)CCN(C)c3ccc(-c4cc(OC)c(N5CCCC5)c(OC)c4)nc3)cn2)cc(OC)c1N1CCCC1	221 to 225
COCn1cc(C2=C(c3cn(C)c4cc([N+](=O)[O-])ccc34)C(=O)NC2=O)c2ccccc21	> 250
CC(C)CCNC(=O)c1ccccc1-c1ccccc1CN1C(=O)c2ccccc2C1=O	169
COC(=S)CCc1cc(C(C)(C)C)cc(C(C)(C)C)c1O	55 to 55.5
Cc1cn(Nc2ccncc2F)c2ccccc12	45
CN(CC1CCCCN1)C(=O)c1cc(OCC(F)(F)F)ccc1OCC(F)(F)F (stereo not given)	104 to 107
CCCc1nc(C(C)(C)O)c(C(=O)O)n1Cc1ccc(-c2ccccc2C(=O)OC(C)(C)C)cc1	155 to 157

Structure (SMILES)	melting point [°C]
CCOC(=O)NCCN1CCC(NC(=O)c2cc(Cl)c(N)c3c2OCCC3)CC1	160
CCOC(=O)c1cc2cc(NC(C)=O)ccc2n1C(=O)OC(C)(C)C	122 to 123
CC(=O)N(CCN1CCC(Nc2nc3ccccc3n2Cc2ccc(F)cc2)CC1)c1nccs1	186 to 193
Cc1nnc2n1-c1ccc([N+](=O)[O-])cc1C(c1ccccc1Cl)=CC2	225 to 227
COc1ccc(N(Cc2ccc(C#N)cc2)n2ccnc2)cc1	207
COc1ccc(N(Cc2cnn(Cc3ccc(C(F)(F)F)cc3)c2)C(=O)C2CCCc3c(O)cccc32)cn1 (stereo not given)	199 to 200
O=C(NO)[C@H](CNS(=O)(=O)c1ccc(OCc2ccccc2)cc1)N1CCCCC1	126
CC(=O)C1(O)CCC2C3CC(C)C4=CC(=O)CCC4(C)C3(F)CCC21C (stereo not given)	232 to 235
COC/C=C\c1cccc(C2(c3ccc(OC(F)F)cc3)N=C(N)N(C)C2=O)c1 (stereo not given)	41 to 44
Cc1cc2c(cc1C)C(c1ccccc1Cl)C(=O)N2 (stereo not given)	231
CC1=C(C#Cc2ccccc2/C=C/C(C)=C/C(=O)O)C(C)(C)CCC1	194 to 196
CCN(CC)CCC(=O)NC1(c2ccccc2Cl)C(=O)Nc2ccc(Cl)cc21 (stereo not given)	176 to 178
COc1ccccc1-n1c(=O)[nH]c2c(C(N)=O)nc(NCCO)nc21	157 to 160
COC(=O)c1cccc(F)c1O	94 to 95
CCCCCCCCCCCCCCCCCCOc1cc(OCCCBr)cc(N(CC(=O)OC)CC(=O)OC)c1	67 to 69
CN(C)c1nc(N)nc2c1ncn2C1CC(F)C(CO)O1 (stereo not given)	96 to 100
COC(=O)CN(C)CCNC(=O)c1nc(Cl)c(N)nc1N	132 to 134
CCCCCC(=O)NC1(OCC)CC1	47 to 48.5
COc1ccc(C=O)c(Cl)c1OCc1ccccc1	86 to 88
O=C(CCCCCl)NC1CCCCC1	70 to 71
NNC(=O)N(O)C1c2ccccc2Oc2ccccc21	186
COc1ccc(Cl)cc1C(=O)NCCc1ccc(CC(C)(C)C(=O)O)cc1	138 to 141
CS(=O)(=O)Nc1cc(NC(=O)CC(=O)C(F)(F)F)c(F)cc1C#N	186 to 191
CC(=O)Nc1ccc(S(=O)(=O)CC(=O)C23CC4CC(CC(C4)C2)C3)cc1	151 to 152
CCCCCC(=O)Nc1ccc2c(c1)c(Cc1ccc(C(=O)O)cc1OC)cn2CC(=O)O	235 to 240

Structure (SMILES)	melting point [°C]
Nc1ncnc2c1ncn2C1CCC(O)C1O (stereo not given)	201 to 202
CCCCc1nc(SCC)c(CO)n1Cc1ccc(-c2ccccc2C(=O)O)cc1	160
COCCC(=O)N[C@H]1CC[C@H](CCN2CCC(c3ccc(F)c4occc34)CC2)CC1	177
COP(=O)(CC(=O)COc1cccc(Cl)c1)OC	78 to 79
CCOc1nn(C(=O)NS(=O)(=O)c2c(C)csc2C)c(=O)n1C	158
Cc1ccc2c(c1)C(=O)c1ccccc1CO2	100 to 103
CN(C(=O)Nc1ccc2c(ccn2C)c1)c1cccnc1	58 to 60
Oc1ccc(OCCn2nc3c(n2)CCCC3)cc1	93
CCCCCCCCCCC(O)C[N+]1([O-])CCOCC1 (stereo not given)	151 to 152
Nc1nc(NCCc2cccc(O)c2)nc2nc(-c3ccco3)nn12	190 to 193
Cc1ccc(C(CC(=O)O)c2ccc(F)cc2)cc1 (stereo not given)	137 to 139
O=c1c2ccccc2nc2n1CCc1c-2[nH]c2ccc(F)cc12	290
CCOC(=O)c1c(-c2ccccc2)n(C)n(-c2ccc(C#N)cc2)c1=O	218 to 220
Cn1nc(-c2ccc(S(=O)(=O)N3CCn4c(c(C(N)=O)c(Cl)c4-c4ccccc4)C3)s2)cc1C(F)(F)F	159 to 161
CCc1cc2c(ccc(=O)n2Cc2ccc(C(=O)OC)cc2)c(CC)n1	128 to 130
COc1ccc(Cc2ncc(CN3CCN(c4ccccc4OC)CC3)c3cc(OC)c(OC)cc23)cc1OC	117 to 119
COc1ccc(-c2cc(COS(C)(=O)=O)c(=O)n(Cc3ccc(F)c(F)c3)n2)cc1F	146 to 147
COC(=O)c1sc2cccc(OC)c2c1N(C)C	69 to 73
CC(Oc1ccc(F)cc1)C1CN(c2ccccc2)CCN1 (stereo not given)	80 to 82
O=C(c1ccc(Cl)cc1)N1CCc2cc(S(=O)(=O)N3CC(c4ccccc4)NC3=O)ccc21 (stereo not given)	235
N#Cc1ccc(CN2CCC(=O)C(C(c3ccc(F)cc3)c3ccc(F)cc3)C2)cc1 (stereo not given)	118 to 120
c1csc(-c2nc(CCCOc3ccc(CCCn4ccnc4)cc3)co2)c1	99 to 100
CC1c2ccccc2-c2ccc(F)cc2N1C(=O)c1ccc(O)cc1 (stereo not given)	134 to 135
CC1(C)CCC(C)(C)c2cc(COc3ccc(C(=O)O)cc3-c3ccccc3)ccc21	195 to 198
CC(=O)N1CCc2ccc(C(=O)CCC(=O)N3CCC(c4ccc(Cl)cc4)CC3)cc2CC1	110 to 112

Structure (SMILES)	melting point [°C]
CCCCc1ccc2c(c1)Cc1cc(C(C)=O)ccc1-2	102 to 104
O=C(NC1CCCCC1)NS(=O)(=O)c1ccc2c(c1)CCN(C(=O)N1CCCC1)CC2	139 to 141
CN1CN(C2CC2)c2ccc(C(N)=O)cc2S1(=O)=O	271 to 273
Cc1c(C2=CCC(c3cccc(F)c3)(N(C)C)CC2)[nH]c2ccccc12 (stereo not given)	157 to 163
Cc1nc(N2CCN(Cc3ccc(F)cc3)C2=O)sc1C(=O)NCc1ncco1	187 to 189
N=C(Nc1ccc(NC(=O)CNCc2ccccc2)cc1)c1cccs1	161 to 163
CCn1cc(CC(=O)O)c(OCCCc2ccc(OCOC)cc2Oc2ccc(C(F)(F)F)cn2)n1	82 to 83
COc1ccc(C2=NO[C@]3(CCOC3)C2)cc1OC1Cc2ccccc2C1	138
O=C(NCc1ccccn1)Nc1cc(N2CC(c3ccccc3F)CC2=O)ccn1 (stereo not given)	173 to 174
CC(=O)NC(=O)C(=O)C(C)(C)C	82 to 84
CC(C)Cc1nc2ccc(OC(C)(C)C)cc2c(-c2ccccc2F)c1C#N	127 to 129
Cc1nccn1-c1nc(-c2ccc(Cl)cc2)c(CCCCO)s1	98 to 99
COC(=O)c1ccc2c(c1)ncn2Cc1ccccc1	156 to 162
CC(CS(=O)(=O)C(C)c1ccccc1)C(=O)O (stereo not given)	91 to 93
CCCCCCCCCCC(Oc1ccc(C2=CCCCCCC2)cc1)C(=O)O (stereo not given)	45 to 48
COC(=O)C1=C(C)NC2=C(C(=O)OC2)C1c1ccccc1C (stereo not given)	224 to 225
CC1=CC(c2ccc(C(F)(F)F)cc2)C2=C(CCCC2=O)N1 (stereo not given)	116 to 118
CCOc1ccc(-c2cc(C3CCCCC3)nc(C3CCCCC3)c2)cc1	106
CCOC(=O)c1ccc(N2CCN(C)CC2)nn1	106
CC(C)(C)C(NC(=O)c1ccc(Cl)cc1)Nc1c(Nc2ccc(F)cc2)c(=O)c1=O (stereo not given)	247 to 249
COc1ccc2ccn(CC(N)=O)c2c1	210 to 211
CCCOCCOc1cc2c(-c3ccccc3)c(CC(=O)Nc3ccc(Cl)cc3C(F)(F)F)c(=O)oc2cc1Cl	170 to 171
Fc1ccc2c(-c3ccncc3)noc2c1	138 to 146
CCCCc1ccc(S(=O)(=O)Nc2nncs2)cc1	120 to 121
OCCN1CCN(c2onc3c2CCc2ccccc2-3)CC1	137 to 138

From a melting point compilation (Tetko et al.; mined from patent text by program, amines drawn as free bases though some values may be those of a salt)
